Test results published in patent EP2992880A1, “Use of heme oxygenase 1 inducers and cannabinoid 2 receptor or delta-opioid receptor agonists in inflammatory pain” (Fundació Institut de Recerca de l'Hospital de la Santa Creu …, priority 2014, dated 2016).

What was measured:
Type in all cases: in vivo, male C57BL/6 mice
CFA-injected mice [1] = assay: plantar test (thermal hyperalgesia) in CFA-induced chronic inflammatory pain; settings: for Thermal hyperalgesia Withdrawal latency: mean ± SEM, n=6; for reversal of the antihyperalgesic effects produced by 150 µg of DPDPE / reversal of the antihyperalgesic (antinociceptive) effects produced by 300 µg of JWH-015: subplantar coadministration; for reversal of the antihyperalgesic effects produced by 150 µg of DPDPE: P < 0.001
Method: (§1) The experiments were performed in male C57BL/6 mice acquired from Harlan Laboratories (Barcelona, Spain). All mice weighing 21 to 25 g were housed under 12-h/12-h light/ dark conditions in a room with controlled temperature (22° C) and humidity (66%). Animals had free access to food and water and were used after a minimum of 7 days acclimatization to the housing conditions. All experiments were performed according with the Guide for the Care and Use of Laboratory Animals as adopted and promulgated by the U.S. National Institutes of Health and approved by the local Committee of Animal Use and Care of the Autonomous University of Barcelona. All efforts were made to minimize animal suffering and to reduce the number of animals used.
(§2) Chronic inflammatory pain was induced by the subplantar injection of 30 µl of CFA (Sigma) into the right hind paw under brief anesthetic conditions with isoflurane according to previous works (Leánez et al., Eur J Pharmacol, 2009, 602:41-49; Hervera et al., Naunyn Schmiedebergs Arch Pharmacol, 2009, 380:345-352). All experiments were performed at 10 days after CFA injection. At this time point, all of these animals developed a local inflammatory reaction, allodynia to mechanical stimuli and hyperalgesia to noxious thermal stimuli, as previously reported (Negrete et al., PLoS One, 2011, 6:e26688). The development of mechanical allodynia and thermal hyperalgesia was evaluated by using the von Frey filaments and plantar tests, respectively. All animals were tested in each paradigm before and at 10 days after CFA-injection.
Thermal hyperalgesia was assessed as previously reported by Hargreaves et al. (Pain, 1988, 32:77-88). Paw withdrawal latency in response to radiant heat was measured using the plantar test apparatus (Ugo Basile, Varese, Italy). Briefly, mice were placed in methacrylate cylinders (20 cm high x 9 cm diameter) positioned on a glass surface. The heat source was positioned under the plantar surface of the hind paw and activated with a light beam intensity, chosen in preliminary studies to give baseline latencies from 8 to 10 s in control mice. A cut-off time of 12 s was used to prevent tissue damage in absence of response. The mean paw withdrawal latencies from the ipsilateral and contralateral hind paws were determined from the average of three separate trials, taken at 5 min intervals to prevent thermal sensitization and behavioral disturbances. Animals were habituated to the environment for 1 h before the experiment to become quiet and to allow testing. […]
In another set of experiments, we evaluated the mechanical antiallodynic and thermal antihyperalgesic effects produced by the subplantar administration of 290 µg of SnPP alone or combined with the subplantar administration of a high dose of DPDPE (150 µg) or JWH-015 (300 µg) in the contralateral and ipsilateral paw of CFA-injected animals (n = 6 animals per group).
The reversibility of the antinociceptive effects produced by the subplantar administration of DPDPE (150 µg) or JWH-015 (300 µg), as doses that produce the maximal antiallodynic and antihyperalgesic effects after peripheral inflammation, by their subplantar coadministration with specific (naltrindole; 50 µg; AM630; 60 µg) and an unspecific peripheral opioid antagonist (naloxone methiodide, NX-ME; 50 µg) or a cannabinoid 1 receptor (CB1R) antagonist (AM251; 150 µg) (Hervera et al., J Pharmacol Exp Ther, 2010, 334: 887-896; Hervera et al., Mol Pain, 2011, 7:25) was also evaluated (n = 6 animals per group). The doses of all tested opioid and cannabinoid receptor antagonists were selected according to our previous data in animals with chronic pain (Hervera et al., Naunyn Schmiedebergs Arch Pharmacol, 2009, 380:345-352; Hervera et al., Psychopharmacology, 2013, 228:463-477; Negrete et al., PLoS One, 2011, 6:e26688).
CoPP and SnPP were dissolved in DMSO (1 % solution in saline). JWH-015, AM630, AM251 were dissolved in DMSO (50 % solution in saline). […]

CFA-injected mice [2] = assay: von Frey filaments test (mechanical allodynia) in CFA-induced chronic inflammatory pain; settings: for Mechanical allodynia von Frey filaments strength / Mechanical allodynia, Experimental results (%) (maximal possible effect): ipsilateral paw; for Mechanical allodynia von Frey filaments strength: mean ± SEM, n=6; for reversal of the antiallodynic effects produced by 150 µg of DPDPE / reversal of the antiallodynic (antinociceptive) effects produced by 300 µg of JWH-015: subplantar coadministration; for reversal of the antiallodynic effects produced by 150 µg of DPDPE: P < 0.001; for Mechanical allodynia, Experimental results (%) (maximal possible effect): CoPP 10 mg/kg intraperitoneal
Method: as §1, §2
Mechanical allodynia was quantified by measuring the hind paw withdrawal response to von Frey filament stimulation. In brief, animals were placed in methacrylate cylinders (20 cm high, 9 cm diameter; Servei Estació, Barcelona, Spain) with a wire grid bottom through which the von Frey filaments (North Coast Medical, Inc., San Jose, CA) with a bending force in the range of 0.008-3.5 g were applied by using a modified version of the up-down paradigm, as previously reported by Chaplan et al. (J Neurosci Methods, 1994, 53:55-63). The filament of 0.4 g was used first and the 3.0 g filament was used as a cut-off. Then, the strength of the next filament was decreased or increased according to the response. The threshold of response was calculated from the sequence of filament strength used during the up-down procedure by using an Excel program (Microsoft Iberia SRL, Barcelona, Spain) that includes curve fitting of the data. Clear paw withdrawal, shaking, or licking of the paw was considered as a nociceptive-like response. Both ipsilateral and contralateral hind paws were tested. Animals were allowed to habituate for 1 h before testing in order to allow an appropriate behavioral immobility.
In a first set of experiments, we assessed the expression of inflammatory pain induced by the subplantar administration of CFA as previously used (Leánez et al., Eur J Pharmacol, 2009, 602:41-49). After the habituation period, baseline responses were established in the following sequence: von Frey filaments and plantar test. After baseline measurements, inflammatory pain was induced and animals were again tested in each paradigm at day 10 after CFA injection by using the same sequence as for baseline responses. The contralateral paws were used as controls (n = 6 animals per group).
In a second set of experiments, we evaluated the mechanical antiallodynic and thermal antihyperalgesic effects of the subplantar administration of different doses of a specific DOR (DPDPE) or CB2R (JWH-015) agonist and their respective vehicles in the contralateral and ipsilateral paw of CFA-injected animals (n = 6 animals per group). […]

CFA-injected mice [3] = assay: plantar test (thermal hyperalgesia) in CFA-induced chronic inflammatory pain
Method: as §1
Chronic inflammatory pain was induced by the subplantar injection of 30 µl of CFA (Sigma) into the right hind paw under brief anesthetic conditions with isoflurane according to previous works (Leánez et al., Eur J Pharmacol, 2009, 602:41-49; Hervera et al., Naunyn Schmiedebergs Arch Pharmacol, 2009, 380:345-352). All experiments were performed at 10 days after CFA injection. […] The development of mechanical allodynia and thermal hyperalgesia was evaluated by using the von Frey filaments and plantar tests, respectively. […]
Thermal hyperalgesia was assessed as previously reported by Hargreaves et al. (Pain, 1988, 32:77-88). Paw withdrawal latency in response to radiant heat was measured using the plantar test apparatus (Ugo Basile, Varese, Italy). […] The mean paw withdrawal latencies from the ipsilateral and contralateral hind paws were determined from the average of three separate trials, taken at 5 min intervals to prevent thermal sensitization and behavioral disturbances. […]
In a first set of experiments, we assessed the expression of inflammatory pain induced by the subplantar administration of CFA as previously used (Leánez et al., Eur J Pharmacol, 2009, 602:41-49). […]

[4] = Table 7, DOR agonist, ipsilateral paw, subplantar DPDPE 150 µg, naltrindole 50 µg, NX-ME 50 µg, vehicle+vehicle 3.4 ± 0.5
[5] = Table 7, DOR agonist, subplantar DPDPE 150 µg, naltrindole 50 µg, NX-ME 50 µg, vehicle+vehicle 1.3 ± 0.1
[6] = Table 7, CB2R agonist, ipsilateral paw, subplantar JWH-015 300 µg, AM630 60 µg, AM251 150 µg, vehicle+vehicle 3.8 ± 0.3
[7] = Table 7, CB2R agonist, subplantar JWH-015 300 µg, AM630 60 µg, AM251 150 µg, vehicle+vehicle 1.4 ± 0.1

## C=Cc1c(C)c2cc3[nH]c(cc4nc(cc5nc(cc1[nH]2)C(C)=C5CCC(=O)[O-])C(CCC(=O)[O-])=C4C)c(C)c3C=C.[Cl-].[Cl-].[Sn+4] [SnPP, tin (IV) protoporphyrin IX dichloride]
CFA-injected mice [1]; SnPP 290 µg + DPDPE 150 µg subplantar, P < 0.001 (Fig. 5B)
  effect of SnPP coadministration on the local antihyperalgesic effects of DPDPE: significantly decreased
CFA-injected mice [1]; SnPP 290 µg + JWH-015 300 µg subplantar, P < 0.001 (Fig. 5B)
  effect of SnPP coadministration on the local antihyperalgesic effects of JWH-015: significantly decreased
CFA-injected mice [1]; SnPP alone 290 µg subplantar (Fig. 5B)
  thermal hyperalgesia induced by peripheral inflammation: did not alter
CFA-injected mice [2]; SnPP 290 µg + DPDPE 150 µg subplantar, P < 0.001 (Fig. 5A)
  effect of SnPP coadministration on the local antiallodynic effects of DPDPE: significantly decreased
CFA-injected mice [2]; SnPP 290 µg + JWH-015 300 µg subplantar, P < 0.001 (Fig. 5A)
  effect of SnPP coadministration on the local antiallodynic effects of JWH-015: significantly decreased
CFA-injected mice [2]; SnPP alone 290 µg subplantar (Fig. 5A)
  mechanical allodynia induced by peripheral inflammation: did not alter

## C=CC[N+]1(C)CC[C@]23c4c5ccc(O)c4O[C@H]2C(=O)CC[C@@]3(O)[C@H]1C5 (some centres unmarked) [NX-ME, naloxone methiodide]
CFA-injected mice [1]; [4]
  Thermal hyperalgesia Withdrawal latency: 3.6 ± 0.5 s
CFA-injected mice [1]; naltrindole 50 µg, NX-ME 50 µg
  reversal of the antihyperalgesic effects produced by 150 µg of DPDPE: completely reversed
CFA-injected mice [2]; [5]
  Mechanical allodynia von Frey filaments strength: 1.2 ± 0.1 g
CFA-injected mice [2]; naltrindole 50 µg, NX-ME 50 µg
  reversal of the antiallodynic effects produced by 150 µg of DPDPE: completely reversed

## COc1ccc(C(=O)c2c(C)n(CCN3CCOCC3)c3cc(I)ccc23)cc1 [AM630]
CFA-injected mice [1]; [6]
  Thermal hyperalgesia Withdrawal latency: 3.7 ± 0.2 s
CFA-injected mice [1]; AM630 60 µg, AM251 150 µg
  reversal of the antihyperalgesic (antinociceptive) effects produced by 300 µg of JWH-015: completely reversed
CFA-injected mice [2]; [7]
  Mechanical allodynia von Frey filaments strength: 1.3 ± 0.1 g
CFA-injected mice [2]; AM630 60 µg, AM251 150 µg
  reversal of the antiallodynic (antinociceptive) effects produced by 300 µg of JWH-015: completely reversed

## Cc1c(C(=O)NN2CCCCC2)nn(-c2ccc(Cl)cc2Cl)c1-c1ccc(I)cc1 [AM251, N-(piperidin-1-yl)-5-(4-iodophenyl)-1-(2,4-dichlorophenyl)-4-methyl-1 H-pyrazole-3-carboxamide]
CFA-injected mice [1]; [6]
  Thermal hyperalgesia Withdrawal latency: 3.6 ± 0.4 s
CFA-injected mice [1]; AM630 60 µg, AM251 150 µg
  reversal of the antihyperalgesic (antinociceptive) effects produced by 300 µg of JWH-015: unable to revert
CFA-injected mice [2]; [7]
  Mechanical allodynia von Frey filaments strength: 1.4 ± 0.1 g
CFA-injected mice [2]; AM630 60 µg, AM251 150 µg
  reversal of the antiallodynic (antinociceptive) effects produced by 300 µg of JWH-015: unable to revert

## Oc1ccc2c3c1O[C@H]1c4[nH]c5ccccc5c4C[C@@]4(O)[C@@H](C2)N(CC2CC2)CC[C@]314 [Naltrindole, naltrindole]
CFA-injected mice [1]; [4]
  Thermal hyperalgesia Withdrawal latency: 3.4 ± 0.6 s
CFA-injected mice [1]; naltrindole 50 µg, NX-ME 50 µg
  reversal of the antihyperalgesic effects produced by 150 µg of DPDPE: completely reversed
CFA-injected mice [2]; [5]
  Mechanical allodynia von Frey filaments strength: 1.3 ± 0.1 g
CFA-injected mice [2]; naltrindole 50 µg, NX-ME 50 µg
  reversal of the antiallodynic effects produced by 150 µg of DPDPE: completely reversed

## CCCn1c(C)c(C(=O)c2cccc3ccccc23)c2ccccc21 [JWH-015, (2-Methyl-1-propyl-1H-indol-3-yl)-1-naphthalenylmethanone]
CFA-injected mice [1]; Table 6, ipsilateral paw, CoPP 10 mg/kg intraperitoneal, JWH-015 30 µg subplantar, vehicle 4.9
  Thermal hyperalgesia, Experimental results (%) (maximal possible effect): 7.4%
CFA-injected mice [1]; [6]
  Thermal hyperalgesia Withdrawal latency: 9.2 ± 0.2 s
CFA-injected mice [2]; Table 6, JWH-015 30 µg subplantar, vehicle 4.1
  Mechanical allodynia, Experimental results (%) (maximal possible effect): 7.5%
CFA-injected mice [2]; [7]
  Mechanical allodynia von Frey filaments strength: 2.5 ± 0.2 g

## [2-D-penicillamine,5-D-penicillamine]-enkephalin [DPDPE]
CFA-injected mice [2]; Table 5, DPDPE 50 µg subplantar, vehicle 5.8
  Mechanical allodynia, Experimental results (%) (maximal possible effect): 11.8%
CFA-injected mice [2]; [5]
  Mechanical allodynia von Frey filaments strength: 2.4 ± 0.1 g
CFA-injected mice [2]; subplantar administration, DPDPE 50-150 µg, JWH-015 30-300 µg (Fig. 1A, 2A)
  mechanical allodynia induced by peripheral inflammation: dose-dependently inhibited
CFA-injected mice [3]; Table 5, ipsilateral paw, CoPP 10 mg/kg intraperitoneal, DPDPE 50 µg subplantar, vehicle 4.0
  Thermal hyperalgesia, Experimental results (%) (maximal possible effect): 16.0%
CFA-injected mice [3]; Table 7, DOR agonist, ipsilateral paw, subplantar DPDPE 150 µg, naltrindole 50 µg, NX-ME 50 µg, vehicle+vehicle 3.4 ± 0.5, mean ± SEM, n=6
  Thermal hyperalgesia Withdrawal latency: 9.2 ± 0.7 s
CFA-injected mice [3]; subplantar administration, DPDPE 50-150 µg, JWH-015 30-300 µg (Fig. 1B, 2B)
  thermal hyperalgesia induced by peripheral inflammation: dose-dependently inhibited
